According to patent US20100022475A1, “NOVEL TRIAZOLOPYRIMIDINE DERIVATIVES” (priority 2004, published 2010):

Experiments:
Alternaria solani = Alternaria solani / tomato / preventive; format: in vivo; settings: 200 ppm, spray, tomato plants cv. Roter Gnom, assessed 4 days after inoculation
Botrytis cinerea = Botrytis cinerea / tomato / preventive; format: in vivo; settings: 200 ppm, spray, tomato plants cv. Roter Gnom, assessed 3 days after inoculation
Puccinia recondita = Puccinia recondita / wheat / preventive (brown rust); format: in vivo; settings: 200 ppm, spray, wheat plants cv. Arina, assessed 11 days after inoculation
[1] = system: Magnaporthe grisea (Pyricularia oryzae); format: in vivo; settings: 200 ppm, spray, rice plants cv. Koshihikari, preventive, assessed 6 days after inoculation
[2] = system: Pyrenophora teres (Helminthosporium teres); assay: Pyrenophora teres (Helminthosporium teres) / barley / preventive (net blotch); format: in vivo; settings: 200 ppm, spray, barley plants cv. Regina, assessed 4 days after inoculation
Septoria tritici = Septoria tritici / wheat / preventive (Septoria leaf spot); format: in vivo; settings: 200 ppm, spray, wheat plants cv. Riband, assessed 16-18 days after inoculation

| Compound | inhibits fungal infestation (Alternaria solani) [%] | inhibits fungal infestation (Botrytis cinerea) [%] | inhibits fungal infestation (Puccinia recondita) [%] | inhibits fungal infestation [1] [%] | inhibits fungal infestation [2] [%] | inhibits fungal infestation (Septoria tritici) [%] | melting point [°C] |
| --- | --- | --- | --- | --- | --- | --- | --- |
| C[Si]1(CNc2c(-c3c(F)cc(F)cc3F)c(Cl)nc3ncnn23)CCCC1 [I.d.081, [5-chloro-6-(2,4,6-trifluoro-phenyl)-[1,2,4]triazolo[1,5-a]pyrimidin-7-yl]-(1-methyl-silolan-1-ylmethyl)-amine] | ≥ 80 | ≥ 80 | ≥ 80 | ≥ 80 | ≥ 80 | ≥ 80 | 138 to 139 |
| C[Si]1(CNc2c(-c3c(F)cc(F)cc3F)c(Cl)nc3ncnn23)CCCCC1 [I.o.081, [5-chloro-6-(2,4,6-trifluoro-phenyl)-[1,2,4]triazolo[1,5-a]pyrimidin-7-yl]-(1-methyl-silinan-1-ylmethyl)-amine] | – | – | – | – | – | – | 150 to 152 |
